Legend:
[1] = system: hTNFα-induced neutrophil recruitment; assay: Neutrophil recruitment in mice, compound pre-mixed with hTNFα and injected i.p.; format: in vivo, Balb/c mice; details: for effect of compound alone on neutrophil recruitment: compound only mice, no TNFα; for neutrophil recruitment versus TNFα in the absence of the compound: sample 1, ratio compound:TNFα 0.1:1, i.p.; for neutrophil recruitment versus TNFα in the absence of the compound / inhibition of neutrophil recruitment: 2 h
Description: In separate studies, compounds of formula (1) and formula (2) were mixed with 20 μM solutions of TNFα dissolved in phosphate buffered saline (PBS) to a concentration of 2 μM, 20 μM and 200 μM. The ratio of each compound to TNFα was, therefore, 0.1:1 (sample 1), 1:1 (sample 2) and 10:1 (sample 3). […] This process separates protein bound compound and free compound. A control sample containing PBS only was processed in the same way to provide a vehicle control for the study. The concentration of eluted protein was determined using a Nanodrop (ND-1000). The TNFα:compound complexes were diluted in PBS to a concentration for injection of 0.03 μg/kg.
For the study, typically, each group contained 10 male Balb/c mice (Charles River) apart from an anti-human TNFα antibody positive control, which used a set of 5 mice.
Compound only mice were also included in the study to assess the effect of compound on neutrophil recruitment.
All mice were killed by cervical dislocation two hours post-injection of hTNFα (t=2 h) and the peritoneal cavity was lavaged with 3 mL of FACS buffer (500 mL PBS containing 2 g bovine serum albumin, 6 mL HEPES buffer and […]). Lavage fluid was aspirated and neutrophil numbers were assessed by staining cells with anti-Gr1 PE and anti-CD45 FITC by FACS as detailed below.
100 μL of lavage fluid from each sample was aliquoted into FACS tubes. A FACS cocktail was made up using anti-GR-1 PE (BD cat #553128 Lot #75542) at 1 in 39 dilution and anti-CD45 FITC (BD cat #553080 Lot #80807) at 1 in 19 dilution in FACS buffer. Fc block (BD Cat #553142 Lot #87810) was prepared 1 in 10 with FACS buffer and 10 μL added to each sample 5 minutes before adding the antibody cocktail. […] Samples were then left for 20 mins on ice. 1 mL of FACS Lyse solution (BD Cat #349202 Lot #29076, diluted 1:10 in dH2O) was added to each tube, mixed and left at room temperature for 5 minutes. 1 mL of FACS Buffer was then added to each tube and centrifuged at 400 g for 5 minutes. The FACS buffer was then carefully poured off and the tip of the tube dabbed on absorbent paper to leave the tube completely dry. Then […] of 1 in 10 Reference Bead solution (Sigma cat # P2477 Lot #116K1612) diluted in FACS buffer was added to each tube.
Samples were analysed using FACScalibur II and FloJo software.

TNFα [2] = target: T1, TNFα (Homo sapiens, UniProt P01375); assay: Fluorescence probed thermal denaturation assay (Thermofluor) of TNFα; format: binding; details: TNFα + 5% DMSO + compound
Description: A fluorescence probed thermal denaturation assay was performed to assess the effect of the compounds on the thermal stability of TNFα as a measure of compound binding. The reaction mix contained 5 μl of 30×SYPRO® Orange dye (Invitrogen) and 5 μl of TNFα (at 1.0 mg/ml), 37.5 μl PBS, pH 7.4 and 2.5 μl of compound (at 2 mM in DMSO). 10 μl of the mix was dispensed in quadruplicate into a 384 PCR optical well plate and was run on a 7900HT Fast Real-Time PCR System ([…]). PCR System heating device was set at 20° C. to 99° C. with a ramp rate of 1.1° C./min; fluorescence changes in the wells were monitored by a Charge-coupled device (CCD). The fluorescence intensity increase was plotted as a function of temperature and the Tm calculated as the midpoint of this denaturation curve (determined as the point of inflection) (Table 1).
Thermofluor measures the change of melting temperature (Tm) of TNFα due to compound either stabilising or disrupting the protein.

TNFα [3] = target: T1, TNFα; assay: Surface plasmon resonance kinetics of compound binding to immobilised TNFα (Biacore T100/T200); details: for dissociation half-life (t1/2): from koff; for kon / koff: immobilised TNFα, HBS-P with 5% DMSO; for koff: read-out: dissociation rate constant (koff)
Description: Surface plasmon resonance was used to measure the association rate, the dissociation rate and the affinity of the compounds of formulae (1) and (2) for TNFα (FIGS. 13A and B). For the purpose of this study a Biacore T100/T200 was used.
TNFα was immobilised at pH5 to a level of 5-8 KRU onto a CMS sensor in HBS-P buffer (10 mM HEPES pH 7.4, 0.15 M NaCl, 0.005% Surfactant P20, BIAcore, GE Healthcare). The TNFα was then equilibrated in HBS-P with 5% DMSO for at least 5 hours. The samples were diluted from 10 mM stocks into DMSO matched buffer and left to solubilise for at least 5 hours. The flow rate was 30 μL/min.
This assay was performed by adding 4 or 5 concentrations of compound starting from a highest concentration of 25 μM for compound of formula (1) and 1 μM for compound of formula (2) and then serially diluting this sample. Background subtraction binding curves were analysed using the BIAevaluation software following standard procedures. Binding, affinity and kinetic parameters were determined using Biacore software. The kinetic data were fitted using the levenberg marquardt algorithm.

m-TNFα = target: T2, m-TNFα (Mus musculus, UniProt P06804); assay: Monomer exchange in TNFα trimers by mass spectrometry, compound pre-incubated with mouse TNFα; format: binding; details: for off-rate from m-TNFα: 1:1 complex with m-TNFα mixed with h-TNFα; for cross species monomer subunit exchange: compound preincubated with m-TNFα, then h-TNFα added
T2 sequence (P06804 80-235 limits assumed): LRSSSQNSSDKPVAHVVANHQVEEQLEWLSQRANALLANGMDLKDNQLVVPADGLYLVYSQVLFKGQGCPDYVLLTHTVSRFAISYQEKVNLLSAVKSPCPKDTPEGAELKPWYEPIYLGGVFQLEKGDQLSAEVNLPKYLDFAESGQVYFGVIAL
Description: Human and mouse homotrimers of TNFα (H3 and M3 respectively) were incubated together and aliquots of the solution monitored by mass spectrometry appearance of the cross species heterotrimers. The mass spectrometric analysis confirmed that monomer exchange between native TNFα trimers was able to occur in solution. The exchange rate was slow and was monitored over a course of 4 hours before full equilibration was achieved (data not shown). The mechanism is unknown, although is it unlikely to involve formation of the dimeric forms as none of these were observed. Monomer exchange is likely to be occurring between pure human and mouse trimers, the mixing of mouse and human trimers simply makes this exchange visible by mass spectrometry.
The experiment was then repeated in reverse. Excess compound of formula 1 was incubated with Mouse TNFα, the excess compound of formula (1) was then removed. Mass Spectral analysis confirmed that a 1:1 complex had been formed between the compound of formula (1) and m-TNFα. Human TNFα was now added to this sample which was then subjected to mass spectral analysis over a number of hours. […] In addition there was evidence of formation of the ligated human homotrimer (H3L), the unligated mouse homotrimer (M3) and for unbound compound of formula (1) (L). […] Once this complex (M3L) has dissociated, monomer subunit exchange between the H3 and M3 species proceeds and the liberated ligand is then able to form complexes with all 4 trimer species present in solution.

T1 sequence (P01375 77-233 limits assumed): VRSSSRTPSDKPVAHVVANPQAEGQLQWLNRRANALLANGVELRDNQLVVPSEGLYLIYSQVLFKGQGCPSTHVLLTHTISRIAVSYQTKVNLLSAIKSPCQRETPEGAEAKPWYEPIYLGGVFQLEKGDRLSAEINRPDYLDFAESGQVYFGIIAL

SMILES	effect of compound alone on neutrophil recruitment [1]	neutrophil recruitment versus TNFα in the absence of the compound [1]	inhibition of neutrophil recruitment ([1]; sample 2, ratio compound:TNFα 1:1, i.p.)	inhibition of neutrophil recruitment ([1]; sample 3, ratio compound:TNFα 10:1, i.p.)	Tm difference (=(TNF + cpd) − (TNF + DMSO)) (TNFα [2])	Kd (TNFα [3]; calculated from koff/kon, read-out: dissociation constant (KD))	dissociation half-life (t1/2) (TNFα [3])	kon (TNFα [3])	koff (TNFα [3])	off-rate from m-TNFα (m-TNFα)	cross species monomer subunit exchange (m-TNFα)
Cc1ccc(C)c(Cn2c(C(O)c3ccncc3)nc3ccccc32)c1 (stereo not shown) [Compound (1), [1-(2,5-Dimethylbenzyl)-1H-benzimidazol-2-yl](pyridin-4-yl)methanol]	negligible effect	not significantly different	86%	85%	11.8	35 nM	over 2 hours	2670 M⁻¹ s⁻¹	9.46e-05 s⁻¹	measurable off-rate	did not prevent monomer subunit exchange
Cc1ccc(C)c(Cn2c(C(O)c3ccncc3)nc3ccc(-c4cnn(C)c4)cc32)c1 (stereo not shown) [Compound (2), [1-(2,5-Dimethylbenzyl)-6-(1-methyl-1H-pyrazol-4-yl)-1H-benzimidazol-2-yl](pyridin-4-yl)methanol]	negligible effect	not significantly different	–	–	17.1	–	> 8 h	1120 M⁻¹ s⁻¹	2.24e-05 s⁻¹	no measurable off-rate	no monomer subunit exchange was observed
